In patent US4415565A, “Silver metachloridine in treatment of infections” (The United States of America as represented by the …, priority 1981, dated 1983):
In brackets after ≈: the same amount, converted by molar mass. Read-outs that look alike come from different tables or passages of the source.

Columns and labels:
[1] = test system: Plasmodium falciparum; assay: In vitro antimalarial screening, semi-automated microdilution technique; type: cell-based; settings: column head in nanograms/ml, footnote in μg/ml, read-out: ED50 (out-of-range entries)
Source text: Desjardins, R. E.; Canfield, C. J.; Haynes, J. D.; and Chulay, J. D.: Quantitative Assessment of Antimalarial Activity In Vitro by A Semi-automated Microdilution Technique. Antimicrob. Ag. & Chemother., 16:710-718, 1979.

[2] = test system: Trypanosoma rhodesiense; assay: In vitro antitrypanosomal screening, semi-automated microtest system; type: cell-based
[3] = test system: RVFV; assay: microbe, parasite or virus in culture; type: cell-based; settings: Rift Valley fever virus, SW13, read-out: Concentration required to give 80% plaque reduction
[4] = test system: YF; assay: microbe, parasite or virus in culture; type: cell-based; settings: MK2, read-out: Concentration required to give 80% plaque reduction
[5] = test system: VEE; assay: microbe, parasite or virus in culture; type: cell-based; settings: Vero; read-out: Concentration required to give 80% plaque reduction
[6] = test system: DEN-2; assay: microbe, parasite or virus in culture; settings: SW13, read-out: Concentration required to give 80% plaque reduction
[7] = test system: PICH; assay: microbe, parasite or virus in culture; settings: Vero, read-out: Concentration required to give 80% plaque reduction
[8] = test system: malaria; settings: A Survey of Antimalarial Drugs, 1941-1945; cited from earlier work
[9] = 3H-Thymidine, read-out: ED50, 3H-Thymidine (out-of-range entries)

Nc1ccc(S(=O)(=O)Nc2ncccn2)cc1 [sulfadiazine, 2-sulfanilaminidopyrimidine]
IC50 [1]: > 12.5 µg/mL

Nc1ccc(S(=O)(=O)Nc2ncccn2)cc1 [aluminum sulfadiazine]
IC50 [2, 9]: > 12.5 µg/mL

NC(=O)c1ncn([C@@H]2O[C@H](CO)[C@@H](O)[C@H]2O)n1 [Ribavirin]
EC80 [3]: 25 µg/mL (≈ 102 µM) | EC80 [4]: 50 µg/mL (≈ 205 µM) | EC80 [5]: 100 µg/mL (≈ 409 µM) | EC80 [6]: 100 µg/mL (≈ 409 µM) | EC80 [7]: 100 µg/mL (≈ 409 µM)

Nc1cccc(S(=O)(=O)Nc2ncc(Cl)cn2)c1 [metachloridine, 5-chloro-2-metanilamidopyrimidine]
IC50 [1]: > 12.5 µg/mL | IC50 [2, 9]: > 12.5 µg/mL | IC50 ([2]; 14C-Leucine, read-out: ED50, 14C-Leucine (out-of-range entries)): > 12.5 µg/mL | antimalarial activity in screening tests [8]: sufficiently active in screening tests for antimalarial effects

COc1cnc(NS(=O)(=O)c2ccc(N)cc2)nc1 [sulfameter]
IC50 [2, 9]: > 12.5 µg/mL
